For this experiment, the system named is P388 leukemia ip, CD2F1 mice, survival T/C. Briefly: NCI In Vivo Anticancer Drug Screen. Data for tumor model P388 Leukemia (intraperitoneal) in CD2F1 (CDF1) mice. The following applies: endpoint: median survival time, higher = longer survival. Summed up: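 Mice carrying the transplanted tumor received test compound or vehicle. Survival was recorded in each group, and the value is the treated-group measurement divided by that of the vehicle-treated control group.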

The mark [1] stands for this setting: dose: 60.0 mg/kg/injection, schedule: Q01DX005 (ip), vehicle: saline with Tween-80.
[2] abbreviates: dose: 120.0 mg/kg/injection, schedule: Q01DX005 (ip), vehicle: saline with Tween-80.
The mark [3] stands for this setting: dose: 50.0 mg/kg/injection, schedule: Q01DX009 (ip), vehicle: saline with Tween-80.
Setting [4] is: dose: 100.0 mg/kg/injection, schedule: Q01DX009 (ip), vehicle: saline with Tween-80.
Setting [5] is: dose: 240.0 mg/kg/injection, schedule: Q01DX005 (ip), vehicle: saline with Tween-80.

“And” between values parts separate entries of the source, which are not always exact repeats. Identical values can stand only once. Toxic doses and inconclusive results are not listed.

On to `Nc1ccccc1SC(C[N+](=O)[O-])c1ccc2c(c1)OCO2` (centres undefined), for which the T/C under setting [1] was 115 % of control and the T/C under setting [2] was 114 % of control.
Taken in the same sequence, the figures for `CSc1nc(NC2OC(COC(C)=O)C(OC(C)=O)C(OC(C)=O)C2OC(C)=O)c(N=C(C)C(C)=O)c(=O)n1C` (centres undefined) were 90 % of control and 91 % of control.
With `CCCCNc1cc(Nc2ccc(Br)cc2)nc(N)n1`, the T/C was 106 % of control (dose: 6.25 mg/kg/injection, schedule: Q04DX003 (ip), vehicle: saline with Tween-80); 99 % of control (dose: 12.5 mg/kg/injection, schedule: Q04DX003 (ip), vehicle: saline with Tween-80); 106 % of control (dose: 25.0 mg/kg/injection, schedule: Q04DX003 (ip), vehicle: saline with Tween-80); 100 % of control (dose: 50.0 mg/kg/injection, schedule: Q04DX003 (ip), vehicle: saline with Tween-80).
As for `Nc1ncnc2c1cnn2Cc1ccc(Cl)cc1`, the T/C under setting [3] was 100 % of control and the T/C under setting [4] was 100 % of control.
On to `CCCCCCCCCCCC1C=CCC1` (centres undefined), for which the T/C is, setting by setting: (dose: 100.0 mg/kg/injection, schedule: Q01DX001 (ip), vehicle: saline) 99 % of control; (dose: 200.0 mg/kg/injection, schedule: Q01DX001 (ip), vehicle: saline) 100 % of control; (dose: 400.0 mg/kg/injection, schedule: Q01DX001 (ip), vehicle: saline) 100 % of control.
On to `C/C1=C\C[C@@H](O)/C(C)=C/[C@H]2OC(=O)[C@H](C)[C@@H]2CC1`, for which the T/C runs as follows: (dose: 8.75 mg/kg/injection, schedule: Q01DX005 (ip), vehicle: Klucel (hydroxypropylcellulose) (HPC)) 94 % of control; (dose: 17.5 mg/kg/injection, schedule: Q01DX005 (ip), vehicle: Klucel (hydroxypropylcellulose) (HPC)) 102 % of control; (dose: 35.0 mg/kg/injection, schedule: Q01DX005 (ip), vehicle: Klucel (hydroxypropylcellulose) (HPC)) 100 % of control; (dose: 70.0 mg/kg/injection, schedule: Q01DX005 (ip), vehicle: Klucel (hydroxypropylcellulose) (HPC)) 86 % of control.
Turning to `Nc1nc(N)c2ncn(-c3ccc(Cl)c(Cl)c3)c2n1`, the T/C by setting is: (dose: 50.0 mg/kg/injection, schedule: Q01DX005 (ip), vehicle: saline with Tween-80) 101 % of control; (dose: 100.0 mg/kg/injection, schedule: Q01DX005 (ip), vehicle: saline with Tween-80) 97 % of control; (dose: 200.0 mg/kg/injection, schedule: Q01DX005 (ip), vehicle: saline with Tween-80) 106 % of control.
Consider `CC(C)(C)OC(=O)NCCCCC(NC(=O)OCc1ccccc1)C(=O)O` (centres undefined), for which the T/C by setting is: (dose: 25.0 mg/kg/injection, schedule: Q01DX005 (ip), vehicle: Klucel (hydroxypropylcellulose) (HPC)) 102 % of control; (dose: 50.0 mg/kg/injection, schedule: Q01DX005 (ip), vehicle: Klucel (hydroxypropylcellulose) (HPC)) 100 % of control; (dose: 100.0 mg/kg/injection, schedule: Q01DX005 (ip), vehicle: Klucel (hydroxypropylcellulose) (HPC)) 101 % of control.
Consider `CC1=CC[C@@H]2[C@@H](CC[C@@]2(C)O)C(C)(C)[C@H]1CC[C@@H]1[C@@]2(C)CCC(=O)C(C)(C)O[C@@H]2CC[C@]1(C)O`, for which the T/C (dose: 7.5 mg/kg/injection, schedule: Q01DX005 (ip), vehicle: saline + Tween-80 + alcohol) is 92 % of control; the T/C (dose: 15.0 mg/kg/injection, schedule: Q01DX005 (ip), vehicle: saline + Tween-80 + alcohol) was 98 % of control; the T/C (dose: 30.0 mg/kg/injection, schedule: Q01DX005 (ip), vehicle: saline + Tween-80 + alcohol) is 97 % of control; the T/C (dose: 60.0 mg/kg/injection, schedule: Q01DX005 (ip), vehicle: saline + Tween-80 + alcohol) is 103 % of control.
Consider `COc1cc2c(cc1OC)C(C#N)C2` (centres undefined), for which the T/C by setting is: (dose: 0.78 mg/kg/injection, schedule: Q01DX009 (ip), vehicle: saline with Tween-80) 100 % of control; (dose: 1.56 mg/kg/injection, schedule: Q01DX009 (ip), vehicle: saline with Tween-80) 97 % of control; (dose: 3.12 mg/kg/injection, schedule: Q01DX009 (ip), vehicle: saline with Tween-80) 102 % of control; (dose: 6.25 mg/kg/injection, schedule: Q01DX009 (ip), vehicle: saline with Tween-80) 102 % of control.
Regarding `CC(C)=NOC1CCCCC1O` (centres undefined), the T/C runs as follows: (dose: 100.0 mg/kg/injection, schedule: Q04DX003 (ip), vehicle: saline with Tween-80) 96 % of control; (dose: 200.0 mg/kg/injection, schedule: Q04DX003 (ip), vehicle: saline with Tween-80) 99 % of control; (dose: 400.0 mg/kg/injection, schedule: Q04DX003 (ip), vehicle: saline with Tween-80) 106 % of control.
As for `C=CC1CN2CCC1CC2C(O)c1ccnc2ccc(OC)cc12` (centres undefined) (tested in a mixture with another compound), the T/C under setting [3] is 109 % of control and the T/C under setting [4] was 109 % of control.
As for `CN(C)CCCC1(c2cccc(Cl)c2)SC(C)(C)c2ccccc21` (centres undefined), the T/C was 97 % of control (dose: 25.0 mg/kg/injection, schedule: Q01DX001 (ip), vehicle: saline) and 93 % of control (dose: 50.0 mg/kg/injection, schedule: Q01DX001 (ip), vehicle: saline).
With `O=C1C=CC(=O)N1c1ccc(I)cc1Cl`, the T/C by setting is: under setting [3], 106 % of control; under setting [4], 104 % of control; (dose: 200.0 mg/kg/injection, schedule: Q01DX009 (ip), vehicle: saline with Tween-80) 96 % of control.
In the case of `OCc1c(CO)c(-c2ccc(Cl)cc2)n2c1CCC2`, the T/C was 120 % of control (dose: 12.5 mg/kg/injection, schedule: Q01DX005 (ip), vehicle: distilled water + Tween-80); 111 % of control and 120 % of control (dose: 25.0 mg/kg/injection, schedule: Q01DX005 (ip), vehicle: distilled water + Tween-80); 112 % of control (dose: 50.0 mg/kg/injection, schedule: Q01DX005 (ip), vehicle: distilled water + Tween-80); 156 % of control (dose: 100.0 mg/kg/injection, schedule: Q01DX005 (ip), vehicle: distilled water + Tween-80); 186 % of control (dose: 200.0 mg/kg/injection, schedule: Q01DX005 (ip), vehicle: distilled water + Tween-80); 157 % of control (dose: 400.0 mg/kg/injection, schedule: Q01DX005 (ip), vehicle: distilled water + Tween-80).
`COc1cc2c(cc1OC)C(c1cccc(Cl)c1)=NN=C(C)C2`: the T/C (dose: 60.0 mg/kg/injection, schedule: Q01DX005 (ip), vehicle: Klucel (hydroxypropylcellulose) (HPC)) was 105 % of control; the T/C (dose: 120.0 mg/kg/injection, schedule: Q01DX005 (ip), vehicle: Klucel (hydroxypropylcellulose) (HPC)) was 101 % of control; the T/C (dose: 240.0 mg/kg/injection, schedule: Q01DX005 (ip), vehicle: Klucel (hydroxypropylcellulose) (HPC)) was 96 % of control.
As for `COP(=O)(OC)O/C(=C/Cl)c1cc(Cl)cc(Cl)c1Cl`, the T/C runs as follows: (dose: 100.0 mg/kg/injection, schedule: Q04DX003 (ip), vehicle: Klucel (hydroxypropylcellulose) (HPC)) 102 % of control; (dose: 200.0 mg/kg/injection, schedule: Q04DX003 (ip), vehicle: Klucel (hydroxypropylcellulose) (HPC)) 100 % of control; (dose: 400.0 mg/kg/injection, schedule: Q04DX003 (ip), vehicle: Klucel (hydroxypropylcellulose) (HPC)) 111 % of control.
Take `CCn1cc(C(=O)O)c(=O)c2cc(F)c(-n3cccc3)cc21`: the T/C runs as follows: under setting [1], 101 % of control; under setting [2], 99 % of control; under setting [5], 98 % of control.
With `CC(CN(C)C)C(=O)/C=C/c1ccc(Cl)c(Cl)c1` (centres undefined), the T/C (dose: 15.0 mg/kg/injection, schedule: Q01DX005 (ip), vehicle: saline with Tween-80) was 122 % of control; the T/C (dose: 30.0 mg/kg/injection, schedule: Q01DX005 (ip), vehicle: saline with Tween-80) is 116 % of control; the T/C under setting [1] is 111 % of control and 117 % of control.
As to `Cc1ccc(S(=O)(=O)N2CCN(S(=O)(=O)c3ccc(C)cc3)COC2)cc1`, the T/C is 102 % of control under setting [1], 97 % of control under setting [2] and 104 % of control under setting [5].
`N=C(N)c1ccc(OCCCOc2ccc(C(=N)N)cc2Br)c(Br)c1`: the T/C (dose: 6.25 mg/kg/injection, schedule: Q04DX003 (ip), vehicle: saline) is 100 % of control; the T/C (dose: 12.5 mg/kg/injection, schedule: Q04DX003 (ip), vehicle: saline) is 109 % of control; the T/C (dose: 25.0 mg/kg/injection, schedule: Q01DX009 (ip), vehicle: saline) is 160 % of control; the T/C (dose: 25.0 mg/kg/injection, schedule: Q04DX003 (ip), vehicle: saline) was 113 % of control; the T/C (dose: 33.0 mg/kg/injection, schedule: Q04DX003 (ip), vehicle: saline) was 113 % of control; the T/C (dose: 50.0 mg/kg/injection, schedule: Q01DX009 (ip), vehicle: saline) was 90 % of control. Further, for the setting “dose: 50.0 mg/kg/injection, schedule: Q04DX003 (ip), vehicle: saline”, the T/C was 113 % of control.

The values are drawn from PubChem BioAssay AID330 (DTP/NCI, 2004).
